Measured values taken from patent publication US20260014085A1, “MILK DERIVED EXOSOMES AND USES THEREOF” (VIRGINIA TECH INTELLECTUAL PROPERTIES, INC., priority 2022, published 2026).

Experiments:
[1] = tested on: B5 Clone (High Cx43) MDCK cells; test: mEV uptake in scratch wound model, B5 Clone (High Cx43) MDCK; type: cell-based, canine
Method: Cells are cultured to confluency, then scratched in low serum conditions (1% NCS), rinsed, and supplied fresh medium with 20 μg/mL CTDR-Tagged mEV's. […] (FIG. 4B) Unwounded Parent (Low Cx43) MDCKs; (FIG. 4C) Wounded Parent (Low Cx43) MDCKs; (FIG. 4D) Unwounded B5 Clone (High Cx43) MDCKs; (FIG. 4E) Wounded B5 Clone (High Cx43) MDCKs. […] (FIG. 4G) Wounded B5 Clone (High Cx43) MDCKs provided mEV's; (FIG. 4H) Wounded B5 Clone (High Cx43) MDCKs provided mEV's and Gap27, a Connexin inhibitor.
FIG. 5A-5C—Milk-Derived Extracellular Vesicle targeting capabilities to high Cx43 expressing B5 Clone MDCKS are completely eliminated via use of exogenous Apyrase. Cells are cultured to confluency, then scratched in low serum conditions (1% NCS), rinsed, and supplied fresh medium with 20 μg/mL CTDR-Tagged mEV's with or without 100 uM Apyrase. (FIG. 5A) Wounded B5 Clone (High Cx43) given CTDR-Tagged mEV's; (FIG. 5B) Wounded B5 Clone (High Cx43) given CTDR tagged mEV's with 100 µM Apyrase.
The associated bar graph for particle count analysis is shown above in FIG. 4A. […] This insinuates that mEV uptake by cells is mediated by Cx43 in both unwounded and wounded situations, with unwounded B5 clone cells experiencing similar uptake levels to that of wounded Parent Lampe cells (FIG. 4A). Applicant then tested for the mechanism of uptake in these cells—B5 clone cells were scratch wounded and given fluorescently tagged mEV's, then some were also provided with Gap27 (FIG. 4F), a known Connexin channel blocker. When co-incubated with Gap27 (D2), mEV uptake was blocked by over 25% (FIG. 4F) when compared to those untreated. […] Another mechanism of uptake of mEV's in a wounded environment that Applicant has discovered is ATP (FIG. 5A-5C).
Small extracellular vesicles known as exosomes (nanovesicles of less than or equal to 150 nm diameter) are secreted by nearly all cell types and are thought to have key assignments in intercellular signaling. Reports that exosomes evade immune detection, show propensity to cross tissue boundaries (e.g., the blood-brain barrier) and can be orally administered has also attracted increasing interest in therapeutic applications, including as drug delivery devices. Applicant recently developed a method for large-scale purification of bovine milk-derived extracellular vesicles (Marsh et al., Nanotheranostics. 2021 Jul. 5; 5(4):488-498. doi: 10.7150/ntno.62213. eCollection 2021). […] Girao and co-workers determined that Connexin 43 (Cx43) is present in exosomes derived from cultured cells expressing Cx43, where this gap junction protein has assignments in cellular uptake of exosomal cargo (Soares et al., Sci Rep. 2015 Aug. 19; 5:13243. doi: 10.1038/srep13243). […]

[2] = tested on: B5 Clone (High Cx43) MDCK cells; test: Scratch wound closure (migration index), B5 Clone (High Cx43) MDCK; type: cell-based, canine; conditions: B5 Clone MDCKs, 100 uM Apyrase
Method: FIG. 7A-7L—Milk-Derived Extracellular Vesicles contain endogenous bioactive capabilities in a Scratch-Wounded model of wound healing in Cx43-variable MDCK cells. Cells are cultured to confluency, then scratched in low serum conditions (1% NCS), rinsed, and supplied fresh medium with 20 μg/mL mEV's or 20 uL Vehicle (HEPES buffer). (FIG. 7A) Quantification of wound closure using ImageJ border zone analysis plugin software. Scratches are scanned and imaged at t=0 and scratch size is quantified, then after 8 hours, cells are stopped, fixed and imaged again, then final scratch size is quantified. Migration index is calculated by subtracting the final area from the starting and dividing by the average of vehicle control samples, giving a value of 1.0 for vehicle control. mEV's contain endogenous bioactivity that is Cx43 Dependent, with over 8× healing potential when cells contain enhanced Cx43 levels. […] (FIG. 7G) Quantification of wound closure using ImageJ border zone analysis plugin software. Scratches are scanned and imaged at t=0 and scratch size is quantified, then after 8 hours, cells are stopped, fixed and imaged again, then final scratch size is quantified. […]

Substance | mEV expression with added apyrase ([1]; wounded B5 Clone (High Cx43) MDCKs, 100 uM Apyrase) | reduction in mEV uptake with apyrase ([1]; wounded B5 Clone cells, co-incubated with 100 uM apyrase) | mEV wound healing capabilities with exogenous Apyrase [2] | mEV uptake blocked when co-incubated with Gap27 ([1]; scratch wounded B5 clone cells, compared to untreated) | mEV expression with added Gap27 ([1]; wounded B5 Clone (High Cx43) MDCKs)
Apyrase | significant and complete elimination | > 95% | heavily reduced |  | 
Gap27: a known Connexin channel blocker (TEKTIFIIFML; UniProt P17302 204-214, looked up, fragment) |  |  |  | over 25% | statistical drop
